Read-outs that look alike come from different tables or passages of the source.
Columns and labels:
HIV-1RF = assay: XTT cytoprotection assay (antiviral activity); assay type: cell-based; conditions: for EC50: read-out: EC50; for loss of antiviral activity of BITA vs disulfide form, fold decrease: from Table 2
Text: One exemplary means to determine antiviral activity is with CEM-SS cells and virus (e.g., HIV-1RF) (MOI=0.01) using the XTT (2,3-bis[2-methoxy-4-nitro-5-sulfophenyl]-5-[(phenylamino)carbonyl]-2H-tetrazolium hydroxide) cytoprotection assay, as described by Rice (1993) PNAS 90:9721-9724, and Rice (1997) Antimicrob. Agents Chemother. 41:419-426. Briefly, cells are infected with HIV-1 RF (or other virus to be tested) in the presence of various dilutions of test compounds (thiolesters and controls). The cultures are incubated for seven days. During this time control cultures without protective compounds (i.e., compounds with anti-viral activity) replicate virus, induce syncytia, and result in about 90% cell death. The cell death is measured by XTT dye reduction. XTT is a soluble tetrazolium dye that measures mitochondrial energy output, similar to MTT. Positive controls using dextran sulfate (an attachment inhibitor) or 3′-Azido-2′-3′-dideoxythymidine, AZT (a reverse transcriptase inhibitor) are added to each assay. Individual assays are done in duplicate using a sister plate method.
Effective antiviral concentrations providing 50% cytoprotection (EC50), and cellular growth inhibitory concentrations causing 50% cytotoxicity (IC50) are calculated.

CEM-SS cells = assay: cells; assay type: cell-based
Procedure: Agents Chemother. […] Briefly, cells are infected with HIV-1 RF (or other virus to be tested) in the presence of various dilutions of test compounds (thiolesters and controls). The cultures are incubated for seven days. […] The cell death is measured by XTT dye reduction. XTT is a soluble tetrazolium dye that measures mitochondrial energy output, similar to MTT. Positive controls using dextran sulfate (an attachment inhibitor) or 3′-Azido-2′-3′-dideoxythymidine, AZT (a reverse transcriptase inhibitor) are added to each assay. Individual assays are done in duplicate using a sister plate method.

[1] = target: T1, recombinant HIV-1 NCp7 protein (Human immunodeficiency virus type 1 group M subtype B, UniProt P03347); assay: Trp37 zinc finger fluorescence (zinc ejection) assay; assay type: biochemical
T1 construct: recombinant HIV-1 NCp7 protein
Procedure: Zinc finger reactivity was measured using a Zn specific fluorochrome, TSQ, N-(6-methoxy-8-quinolyl)-p-toluenesulfonamide, assay or a Trp37 zinc finger fluorescence assay. Fluorescent measurements of the Trp37 residue in the C-terminal finger of recombinant HIV-1 NCp7 protein were performed as described by Rice (1995) Science 270:1194-1197; Rice (1997) Antimicrob. Agents Chemother. 41:419-426. Measurement of Zn ejection from both fingers was measured using the Zn-selective fluorchrome probe TSQ (Molecular Probes, Eugene Oreg.) as described by Rice (1996) J. Med. Chem 39:3606-3616. […] Briefly, 50 nM NCp7 was treated with test compounds for 1 hour at RT in […] buffer containing 10% glycerol and 50 mM Tris-HCl (pH 7.5). Labeled oligomer (0.1 picomole, end labeled [^32P] was added in an equal volume of buffer containing 10% glycerol, 50 mM Tris-HCl (pH 7.5), 400 mM KCl and 40 mM MgCl2. The reaction was continued for 15 min at room temperature, and a total of […] (or ¼ of the total reaction volume) was separated on nondenaturing 4.5% polyacrylamide gels in 0.5× Tris-Borate electrophoresis buffer. NCp7-oligomer complexes were visualized by autoradiography.
Changes in the intrinsic fluorescence of aromatic protein moieties are commonly used to monitor a reaction which involves a change in protein conformation. In the present invention, fluorescence can be used to monitor the loss of metal ion from a zinc finger, e.g., the loss of zinc from a CCHC retroviral zinc finger protein, after contact with a thiolester of the invention. The intrinsic fluorescence of Trp37 in the second zinc finger of HIV-1 NC protein has been used to monitor nucleic acid binding and conformation of the zinc finger complex (see, Summers (1992) supra).
Zinc ejection is measured by the ability of compounds to chemically attack the cysteines in purified NCp7 protein resulting in a loss of fluorescence due to the. movement of the tryptophan 37 residue […] position on the protein. Zinc ejection is measured and expressed as either percent decrease in total fluorescence or decrease in relative fluorescence units per min during a 30 min assay (RFU/min). A thiolester is considered within the scope of the invention if any amount of zinc ejection is detected.

[2] = Table 1, 50% cytotoxicity, read-out: IC50
[3] = Table 2, 50% cytotoxicity, read-out: IC50
[4] = Table 4, 50% cytotoxicity, read-out: IC50

SMILES	EC50 (HIV-1RF; Table 1)	IC50 (CEM-SS cells; [2])	other results
CC(=O)NS(=O)(=O)c1ccc(-n2sc3ccccc3c2=O)cc1 [Compound 2 BITA, N-[4-(3-oxo-3H-benz[d]isothiazol-2-yl)phenylsulfonyl] acetamide]	–	–	EC50 (HIV-1RF; Human immunodeficiency virus 1, Table 1): 12.6 µM; IC50 (CEM-SS cells; Homo sapiens, CEM-SS, Table 1, 50% cytotoxicity, read-out: IC50): 34 µM
CC(=O)NS(=O)(=O)c1ccc(NC(=O)c2ccccc2SSc2ccccc2C(=O)Nc2ccc(S(=O)(=O)NC(C)=O)cc2)cc1 [Compound 2 D, N,N′-(2,2′-dithiodibenzoyl)-bis-sulfacetamide]	1.5 µM	> 200 µM	–
O=C(NS(=O)(=O)c1ccc(-n2sc3ccccc3c2=O)cc1)c1ccccc1 [Compound 3 BITA]	9.3 µM	49.5 µM	–
O=C(NS(=O)(=O)c1ccc(NC(=O)c2ccccc2SSc2ccccc2C(=O)Nc2ccc(S(=O)(=O)NC(=O)c3ccccc3)cc2)cc1)c1ccccc1 [Compound 3 D]	3.8 µM	54.1 µM	–
O=c1c2ccccc2sn1-c1ccc(S(=O)(=O)Nc2ccc(Cl)nn2)cc1 [Compound 4 BITA]	7.1 µM	19.2 µM	–
O=C(Nc1ccc(S(=O)(=O)Nc2ccc(Cl)nn2)cc1)c1ccccc1SSc1ccccc1C(=O)Nc1ccc(S(=O)(=O)Nc2ccc(Cl)nn2)cc1 [Compound 4 D]	2.9 µM	18.3 µM	–
O=c1c2ccccc2sn1-c1ccc(S(=O)(=O)Nc2ncccn2)cc1 [Compound 5 BITA]	6.5 µM	50.8 µM	–
O=C(Nc1ccc(S(=O)(=O)Nc2ncccn2)cc1)c1ccccc1SSc1ccccc1C(=O)Nc1ccc(S(=O)(=O)Nc2ncccn2)cc1 [Compound 5 D]	2 µM	46.4 µM	–
COc1cc(NS(=O)(=O)c2ccc(-n3sc4ccccc4c3=O)cc2)nc(OC)n1 [Compound 6 BITA]	7.6 µM	56.6 µM	–
COc1cc(NS(=O)(=O)c2ccc(NC(=O)c3ccccc3SSc3ccccc3C(=O)Nc3ccc(S(=O)(=O)Nc4cc(OC)nc(OC)n4)cc3)cc2)nc(OC)n1 [Compound 6 D]	2.1 µM	52.5 µM	–
COc1ccnc(NS(=O)(=O)c2ccc(-n3sc4ccccc4c3=O)cc2)n1 [Compound 7 BITA]	8.8 µM	57.4 µM	–
COc1ccnc(NS(=O)(=O)c2ccc(NC(=O)c3ccccc3SSc3ccccc3C(=O)Nc3ccc(S(=O)(=O)Nc4nccc(OC)n4)cc3)cc2)n1 [Compound 7 D]	4.2 µM	56.7 µM	–
COc1cnc(NS(=O)(=O)c2ccc(-n3sc4ccccc4c3=O)cc2)nc1 [Compound 8 BITA]	17.8 µM	57.6 µM	–
COc1cnc(NS(=O)(=O)c2ccc(NC(=O)c3ccccc3SSc3ccccc3C(=O)Nc3ccc(S(=O)(=O)Nc4ncc(OC)cn4)cc3)cc2)nc1 [Compound 8 D]	2.1 µM	55.5 µM	–
Cc1cc(C)nc(NS(=O)(=O)c2ccc(-n3sc4ccccc4c3=O)cc2)n1 [Compound 9 BITA]	6.9 µM	17.1 µM	–
Cc1cc(C)nc(NS(=O)(=O)c2ccc(NC(=O)c3ccccc3SSc3ccccc3C(=O)Nc3ccc(S(=O)(=O)Nc4nc(C)cc(C)n4)cc3)cc2)n1 [Compound 9 D]	1.6 µM	32.2 µM	–
NS(=O)(=O)c1ccc(Cn2sc3ccccc3c2=O)cc1 [Compound 23 BITA]	–	–	EC50 (HIV-1RF; Table 2): 13.8 µM; loss of antiviral activity of BITA vs disulfide form, fold decrease (HIV-1RF): 42 fold; IC50 (CEM-SS cells; read-out: toxicity / IC50): 53.7 µM
NS(=O)(=O)c1ccc(CNC(=O)c2ccccc2SSc2ccccc2C(=O)NCc2ccc(S(N)(=O)=O)cc2)cc1 [Compound 23 D, N,N′-(2,2′-dithiodibenzoyl)-bis-4-(aminomethyl)benzene-sulfonanide]	–	–	EC50 (HIV-1RF; Table 2): 0.33 µM; IC50 (CEM-SS cells; read-out: toxicity / IC50): 19.4 µM; zinc finger reactivity / zinc ejection rate [1]: 3.3 RFU/min
NS(=O)(=O)c1ccc(CCn2sc3ccccc3c2=O)cc1 [Compound 24 BITA]	–	–	EC50 (HIV-1RF; Table 2): 2 µM; loss of antiviral activity of BITA vs disulfide form, fold decrease (HIV-1RF): 5 fold; IC50 (CEM-SS cells; [3]): 45.5 µM
NS(=O)(=O)c1ccc(CCNC(=O)c2ccccc2SSc2ccccc2C(=O)NCCc2ccc(S(N)(=O)=O)cc2)cc1 [Compound 24 D, N,N′-(2,2′-dithiodibenzoyl)-bis-4-(2-aminoethyl)benzene-sulfonamide]	–	–	EC50 (HIV-1RF; Table 2): 0.41 µM; IC50 (CEM-SS cells; [3]): 52.8 µM
Nc1cccc(S(=O)(=O)c2cccc(NC(=O)c3ccccc3SSc3ccccc3C(=O)Nc3cccc(S(=O)(=O)c4cccc(N)c4)c3)c2)c1 [Compound 35]	–	–	IC50 (CEM-SS cells; [4]): 81.5 µM; zinc finger reactivity / zinc ejection rate [1]: 0.92 RFU/min
CC(=O)Nc1cccc(S(=O)(=O)c2cccc(NC(=O)c3ccccc3SSc3ccccc3C(=O)Nc3cccc(S(=O)(=O)c4cccc(NC(C)=O)c4)c3)c2)c1 [Compound 36]	–	–	IC50 (CEM-SS cells; [4]): 5.9 µM; zinc finger reactivity / zinc ejection rate [1]: 2 RFU/min
O=C(CCCCBr)Sc1ccccc1C(=O)Nc1ccc(S(=O)(=O)c2ccc(NS(=O)(=O)Cc3ccccc3[N+](=O)[O-])cc2)cc1 [Compound 49]	–	–	IC50 (CEM-SS cells; Table 6, 50% cytotoxicity, read-out: IC50): > 316 µM; Zinc Finger Reactivity RFU/min ([1]; Table 6, average decrease in relative fluorescence units over 30 min): 1.9 RFU/min

The next lines start with results.

EC50 (HIV-1RF; Table 1)	SMILES	IC50 (CEM-SS cells; [2])	other results
22.6 µM	COc1ccc(NS(=O)(=O)c2ccc(-n3sc4ccccc4c3=O)cc2)nn1 [Compound 12 BITA]	55.3 µM	–
4.2 µM	COc1ccc(NS(=O)(=O)c2ccc(NC(=O)c3ccccc3SSc3ccccc3C(=O)Nc3ccc(S(=O)(=O)Nc4ccc(OC)nn4)cc3)cc2)nn1 [Compound 12 D]	53.8 µM	–
9.2 µM	O=c1c2ccccc2sn1-c1ccc(S(=O)(=O)Nc2cnc3ccccc3n2)cc1 [Compound 17 BITA]	54.7 µM	–
0.72 µM	O=C(Nc1ccc(S(=O)(=O)Nc2cnc3ccccc3n2)cc1)c1ccccc1SSc1ccccc1C(=O)Nc1ccc(S(=O)(=O)Nc2cnc3ccccc3n2)cc1 [Compound 17 D]	22.2 µM	–
6.5 µM	Cc1cc(NS(=O)(=O)c2ccc(-n3sc4ccccc4c3=O)cc2)nc(C)n1 [Compound 19 BITA]	39.7 µM	–
1.9 µM	Cc1cc(NS(=O)(=O)c2ccc(NC(=O)c3ccccc3SSc3ccccc3C(=O)Nc3ccc(S(=O)(=O)Nc4cc(C)nc(C)n4)cc3)cc2)nc(C)n1 [Compound 19 D]	18.2 µM	–
12.8 µM	Cc1noc(NS(=O)(=O)c2ccc(-n3sc4ccccc4c3=O)cc2)c1C [Compound 20 BITA]	39 µM	–
2.5 µM	Cc1noc(NS(=O)(=O)c2ccc(NC(=O)c3ccccc3SSc3ccccc3C(=O)Nc3ccc(S(=O)(=O)Nc4onc(C)c4C)cc3)cc2)c1C [Compound 20 D]	44.2 µM	–
111 µM	NC(N)=NS(=O)(=O)c1ccc(NC(=O)c2ccccc2SSc2ccccc2C(=O)Nc2ccc(S(=O)(=O)N=C(N)N)cc2)cc1 [Compound 21 D]	> 316 µM	–
6.2 µM	NS(=O)(=O)c1ccc(NS(=O)(=O)c2ccc(-n3sc4ccccc4c3=O)cc2)cc1 [Compound 22 BITA]	18.1 µM	–
2.3 µM	NS(=O)(=O)c1ccc(NS(=O)(=O)c2ccc(NC(=O)c3ccccc3SSc3ccccc3C(=O)Nc3ccc(S(=O)(=O)Nc4ccc(S(N)(=O)=O)cc4)cc3)cc2)cc1 [Compound 22 D]	–	IC50 (CEM-SS cells; read-out: toxicity / IC50): 43 µM
